Experiments:
Mia-PaCa-2 cells = assay: Growth factor-induced proliferation (MTT), Mia-PaCa-2; format: cell-based, human; details: Mia-PaCa-2, growth factor alone (absence of Compound I), 72 hours, MTT
Procedure: (§1) Cell culture and MTT assay: Human pancreatic cancer cell lines are routinely grown in DMEM (Colo-357 and Mia-PaCa-2) or RPMI (Aspc-1, BxPc-3, Capan-1, and T3M4) supplemented with 10% FBS, 100 U/ml penicillin, and 100 μg/ml streptomycin (complete medium). To assess cell proliferation, the MTT test is employed. […] After 48 or 72 hours of incubation, 3-(4,5-methylthiazol-2-yl)-2,5-diphenyl-tetrazolium bromide (MTT) is added (50 μg/well) for 4 hours. Formazan products are solubilized with acidic isopropanol, and the optical density is measured at 570 nm. […] All experiments are performed in triplicate.
(§2) EGF-induced proliferation of both Mia-PaCa-2 and T3M4 cell lines in a dose-dependent manner is seen with maximal effects of +72% ±7.5% (Mia-PaCa-2) and +52% ±23% (T3M4). […] FGF-2 markedly stimulates cell growth in Mia-PaCa-2 cell lines with maximal effects of +79% ±6%, and only slightly stimulated T3M4 cell lines, with maximal effects of +7% ±4%. […] Both cell lines are less sensitive to IGF-1 stimulation compared with EGF and FGF-2, with maximal effects of +24% ±2% in Mia-PaCa-2 and +17% ±4% in. T3M4.

T3M4 cells = assay: Growth factor-induced proliferation (MTT), T3M4; format: cell-based, human; details: T3M4, growth factor alone (absence of Compound I), 72 hours, MTT
Procedure: as §1, §2

FGF-2: human recombinant FGF-2 from R&D Systems
Maximal effect of growth factor on cell growth (Mia-PaCa-2 cells): +79% ±6
Maximal effect of growth factor on cell growth (T3M4 cells): +7% ±4

IGF-1: human recombinant IGF-1 from R&D Systems
Maximal effect of growth factor on cell growth (Mia-PaCa-2 cells): +24% ±2
Maximal effect of growth factor on cell growth (T3M4 cells): +17% ±4
